What was measured:
FLT3-D835Y = target: T1, FLT3-D835Y (Homo sapiens, UniProt P36888, D835Y); assay: FLT3-D835Y biochemical kinase assay (AlphaScreen)
T1 construct: purchased Invitrogen PV3967
T1 sequence (P36888 27-993 D835Y): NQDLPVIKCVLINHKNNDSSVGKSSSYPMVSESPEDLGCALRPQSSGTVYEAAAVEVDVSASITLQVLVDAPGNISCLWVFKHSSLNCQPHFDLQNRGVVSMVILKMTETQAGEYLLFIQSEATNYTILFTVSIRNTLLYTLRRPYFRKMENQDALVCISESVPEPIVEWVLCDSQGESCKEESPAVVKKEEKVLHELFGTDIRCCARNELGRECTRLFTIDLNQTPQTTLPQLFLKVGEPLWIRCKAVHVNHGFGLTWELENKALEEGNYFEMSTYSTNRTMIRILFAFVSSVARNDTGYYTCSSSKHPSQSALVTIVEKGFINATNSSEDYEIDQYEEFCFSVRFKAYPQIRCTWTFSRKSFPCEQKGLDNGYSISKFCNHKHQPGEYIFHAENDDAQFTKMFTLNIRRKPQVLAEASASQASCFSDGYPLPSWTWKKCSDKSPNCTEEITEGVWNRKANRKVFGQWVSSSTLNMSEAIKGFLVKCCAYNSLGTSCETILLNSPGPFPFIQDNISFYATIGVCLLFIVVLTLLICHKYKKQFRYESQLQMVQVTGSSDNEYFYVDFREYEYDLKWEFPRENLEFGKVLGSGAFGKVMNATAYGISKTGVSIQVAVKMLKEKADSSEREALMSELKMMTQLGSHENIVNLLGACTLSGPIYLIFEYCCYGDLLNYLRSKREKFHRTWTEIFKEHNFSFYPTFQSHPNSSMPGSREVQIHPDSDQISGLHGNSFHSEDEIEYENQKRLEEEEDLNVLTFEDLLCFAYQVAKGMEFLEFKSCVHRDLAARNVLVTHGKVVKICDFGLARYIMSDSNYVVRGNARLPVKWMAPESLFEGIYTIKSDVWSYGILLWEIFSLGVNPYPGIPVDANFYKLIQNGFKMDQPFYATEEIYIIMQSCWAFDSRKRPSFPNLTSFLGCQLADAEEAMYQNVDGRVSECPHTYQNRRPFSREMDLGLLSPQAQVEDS
Method in brief: (§1)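 Recombinant FLT3 mutant kinases phosphorylate biotin-poly(Glu4-Tyr) peptide (30 nM) at 10 μM ATP for D835Y or 100 μM for ITD. Phosphorylation detected by AlphaScreen: streptavidin donor beads (20 min) then anti-phosphotyrosine PY20 acceptor beads (60 min, RT), signal at 580 nm; inhibition lowers signal.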

FLT3-ITD = target: T2, FLT3-ITD (Homo sapiens, UniProt P36888); assay: FLT3-ITD biochemical kinase assay (AlphaScreen)
T2 construct: FLT3-ITD; Invitrogen #PV6190
T2 sequence (P36888 1-993): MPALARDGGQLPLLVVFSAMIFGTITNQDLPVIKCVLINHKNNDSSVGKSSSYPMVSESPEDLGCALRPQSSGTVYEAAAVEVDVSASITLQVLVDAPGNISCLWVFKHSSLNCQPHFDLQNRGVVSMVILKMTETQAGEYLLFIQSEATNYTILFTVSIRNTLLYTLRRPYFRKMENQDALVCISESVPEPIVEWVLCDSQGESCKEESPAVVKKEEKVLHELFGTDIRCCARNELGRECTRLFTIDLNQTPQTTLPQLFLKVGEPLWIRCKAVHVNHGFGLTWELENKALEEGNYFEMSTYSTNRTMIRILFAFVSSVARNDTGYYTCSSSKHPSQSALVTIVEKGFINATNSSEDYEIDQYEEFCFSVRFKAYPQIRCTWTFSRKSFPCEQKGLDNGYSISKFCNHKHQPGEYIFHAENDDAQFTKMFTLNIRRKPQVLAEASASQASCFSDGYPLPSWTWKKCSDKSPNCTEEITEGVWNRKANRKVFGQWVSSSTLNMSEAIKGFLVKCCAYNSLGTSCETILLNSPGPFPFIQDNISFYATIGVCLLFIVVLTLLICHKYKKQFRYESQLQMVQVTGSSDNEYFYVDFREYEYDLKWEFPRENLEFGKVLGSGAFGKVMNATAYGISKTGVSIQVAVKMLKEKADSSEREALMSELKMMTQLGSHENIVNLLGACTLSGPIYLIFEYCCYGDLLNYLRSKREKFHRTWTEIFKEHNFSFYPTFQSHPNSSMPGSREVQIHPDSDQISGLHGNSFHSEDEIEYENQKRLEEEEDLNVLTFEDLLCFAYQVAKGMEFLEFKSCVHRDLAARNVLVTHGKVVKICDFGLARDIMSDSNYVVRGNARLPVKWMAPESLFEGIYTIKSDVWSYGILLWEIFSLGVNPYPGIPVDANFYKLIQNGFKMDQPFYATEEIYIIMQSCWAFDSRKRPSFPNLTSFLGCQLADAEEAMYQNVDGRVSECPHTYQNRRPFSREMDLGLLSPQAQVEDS
Method in brief: as §1

c-Kit = c-Kit (Homo sapiens, UniProt P10721); assay: c-Kit biochemical assay (per US 2007/0032519)
c-Kit, sequence (P10721 26-976): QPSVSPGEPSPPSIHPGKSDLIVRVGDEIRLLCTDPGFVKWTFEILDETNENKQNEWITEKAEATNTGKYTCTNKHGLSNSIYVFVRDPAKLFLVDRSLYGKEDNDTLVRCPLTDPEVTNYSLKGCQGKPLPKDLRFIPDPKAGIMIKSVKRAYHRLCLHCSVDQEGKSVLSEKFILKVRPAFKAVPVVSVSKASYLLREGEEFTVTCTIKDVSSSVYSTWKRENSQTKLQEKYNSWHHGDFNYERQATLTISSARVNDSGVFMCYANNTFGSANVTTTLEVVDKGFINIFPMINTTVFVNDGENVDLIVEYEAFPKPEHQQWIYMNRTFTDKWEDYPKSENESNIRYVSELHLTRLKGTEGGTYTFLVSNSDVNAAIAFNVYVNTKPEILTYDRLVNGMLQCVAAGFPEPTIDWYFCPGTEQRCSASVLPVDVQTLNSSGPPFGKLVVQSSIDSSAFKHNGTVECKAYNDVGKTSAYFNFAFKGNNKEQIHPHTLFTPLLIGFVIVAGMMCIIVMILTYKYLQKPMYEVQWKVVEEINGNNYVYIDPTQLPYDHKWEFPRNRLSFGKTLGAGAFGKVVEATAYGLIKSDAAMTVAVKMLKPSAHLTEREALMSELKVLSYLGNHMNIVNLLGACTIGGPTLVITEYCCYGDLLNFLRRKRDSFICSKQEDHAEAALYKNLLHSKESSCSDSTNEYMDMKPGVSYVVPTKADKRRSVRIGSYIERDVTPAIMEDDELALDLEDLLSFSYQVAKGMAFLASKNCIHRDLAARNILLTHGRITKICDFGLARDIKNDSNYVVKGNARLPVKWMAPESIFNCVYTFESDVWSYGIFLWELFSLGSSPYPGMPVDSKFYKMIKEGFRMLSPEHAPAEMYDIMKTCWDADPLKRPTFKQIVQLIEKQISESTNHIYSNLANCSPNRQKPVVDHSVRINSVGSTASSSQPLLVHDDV
Method in brief: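 Biochemical kinase inhibition run per US 2007/0032519; values reported as binned IC50 ranges (0.0001–1 μM, 1–10 μM, 10–200 μM).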

| Structure (SMILES) | IC50 (FLT3-D835Y) | IC50 (FLT3-ITD) | IC50 (c-Kit) |
| --- | --- | --- | --- |
| CS(=O)(=O)Nc1cccc(-c2cnc3[nH]cc(-c4ccc5[nH]cnc5c4)c3n2)c1 [P-011, N-[3-[7-(1H-benzimidazol-5-yl)-5H-pyrrolo[2,3-b]pyrazin-2-yl]phenyl]methanesulfonamide] | 0.0001 to 1 µM | 0.0001 to 1 µM | 1 to 10 µM |
| Cn1cnc2ccc(-c3c[nH]c4ncc(-c5cnc(C6CC6)nc5)cc34)cc21 [P-039, 5-(2-cyclopropylpyrimidin-5-yl)-3-(3-methylbenzimidazol-5-yl)-1H-pyrrolo[2,3-b]pyridine] | 0.0001 to 1 µM | 0.0001 to 1 µM | 1 to 10 µM |
| c1nc2cc(-c3c[nH]c4ncc(OCC5CC5)cc34)ccc2[nH]1 [P-007, 3-(1H-benzimidazol-5-yl)-5-(cyclopropylmethoxy)-1H-pyrrolo[2,3-b]pyridine] | 1 to 10 µM | 0.0001 to 1 µM | 1 to 10 µM |
| Cn1cnc2ccc(-c3c[nH]c4ncc(-c5cccc(C(F)(F)F)c5)cc34)cc21 [P-132, 1-methyl-6-[5-[3-(trifluoromethyl)phenyl]-1H-pyrrolo[2,3-b]pyridin-3-yl]benzimidazole] | 0.0001 to 1 µM | 0.0001 to 1 µM | 10 to 200 µM |
| COc1ccc2c(-c3ccc4ncn(C)c4c3)c[nH]c2n1 [P-034, 6-methoxy-3-(3-methylbenzimidazol-5-yl)-1H-pyrrolo[2,3-b]pyridine] | 1 to 10 µM | 1 to 10 µM | 10 to 200 µM |
| Cn1cnc2ccc(-c3c[nH]c4ncc(C5=CCN(C(=O)C6CC6)C5)cc34)cc21 [P-130, cyclopropyl-[3-[3-(3-methylbenzimidazol-5-yl)-1H-pyrrolo[2,3-b]pyridin-5-yl]-2,5-dihydropyrrol-1-yl]methanone] | 0.0001 to 1 µM | 0.0001 to 1 µM | 10 to 200 µM |
| Clc1cnc2[nH]cc(-c3ccc4nc[nH]c4c3)c2c1 [P-035, 3-(3H-benzimidazol-5-yl)-5-chloro-1H-pyrrolo[2,3-b]pyridine] | 0.0001 to 1 µM | 0.0001 to 1 µM | 1 to 10 µM |
| COc1cnc2[nH]cc(-c3ccc4[nH]nc(C)c4c3)c2c1 [P-083, 5-methoxy-3-(3-methyl-1H-indazol-5-yl)-1H-pyrrolo[2,3-b]pyridine] | 0.0001 to 1 µM | 0.0001 to 1 µM | 1 to 10 µM |
| Cc1nn(C(C)C)cc1-c1cnc2[nH]cc(-c3ccc4ncn(C(C)(C)C)c4c3)c2n1 [P-381, 7-(3-tert-butylbenzimidazol-5-yl)-2-(1-isopropyl-3-methyl-pyrazol-4-yl)-5H-pyrrolo[2,3-b]pyrazine] | 0.0001 to 1 µM | 0.0001 to 1 µM | 0.0001 to 1 µM |
| COc1cnc2[nH]cc(-c3ccc4ncsc4c3)c2c1 [P-029, 6-(5-methoxy-1H-pyrrolo[2,3-b]pyridin-3-yl)-1,3-benzothiazole] | 0.0001 to 1 µM | 0.0001 to 1 µM | 1 to 10 µM |
| Cc1nc2cc(-c3c[nH]c4ncccc34)ccc2[nH]1 [P-012, 2-methyl-5-(1H-pyrrolo[2,3-b]pyridin-3-yl)-1H-benzimidazole] | 1 to 10 µM | 1 to 10 µM | 10 to 200 µM |
| Cn1cnc2ccc(-c3c[nH]c4ncccc34)cc21 [P-009, 1-methyl-6-(1H-pyrrolo[2,3-b]pyridin-3-yl)benzimidazole] | 0.0001 to 1 µM | 0.0001 to 1 µM | 1 to 10 µM |
| CNS(=O)(=O)c1cccc(-c2cnc3[nH]cc(-c4ccc5ncn(C)c5c4)c3n2)c1 [P-057, N-methyl-3-[7-(3-methylbenzimidazol-5-yl)-5H-pyrrolo[2,3-b]pyrazin-2-yl]benzenesulfonamide] | 0.0001 to 1 µM | 0.0001 to 1 µM | 1 to 10 µM |
| Cn1cnc2ccc(-c3c[nH]c4ncc(C#N)cc34)cc21 [P-020, 3-(3-methylbenzimidazol-5-yl)-1H-pyrrolo[2,3-b]pyridine-5-carbonitrile] | 0.0001 to 1 µM | 0.0001 to 1 µM | 10 to 200 µM |
| CS(=O)(=O)Nc1cccc(-c2cnc3[nH]cc(-c4ccc5c(c4)NCCO5)c3n2)c1 [P-085, N-[3-[7-(3,4-dihydro-2H-1,4-benzoxazin-6-yl)-5H-pyrrolo[2,3-b]pyrazin-2-yl]phenyl]methanesulfonamide] | 0.0001 to 1 µM | 0.0001 to 1 µM | 1 to 10 µM |
| COc1ccc(-c2cnc3[nH]cc(-c4ccc5[nH]cnc5c4)c3c2)cn1 [P-024, 3-(1H-benzimidazol-5-yl)-5-(6-methoxy-3-pyridyl)-1H-pyrrolo[2,3-b]pyridine] | 0.0001 to 1 µM | 0.0001 to 1 µM | 1 to 10 µM |
| CCS(=O)(=O)Nc1cccc(-c2cnc3[nH]cc(-c4ccc5ncn(C)c5c4)c3c2)c1 [P-094, N-[3-[3-(3-methylbenzimidazol-5-yl)-1H-pyrrolo[2,3-b]pyridin-5-yl]phenyl]ethanesulfonamide] | 0.0001 to 1 µM | 0.0001 to 1 µM | 1 to 10 µM |
| CC(C)(C)n1cnc2ccc(-c3c[nH]c4ncc(-c5cnc(C(N)=O)c(Cl)c5)nc34)cc21 [P-364, 5-[7-(3-tert-butylbenzimidazol-5-yl)-5H-pyrrolo[2,3-b]pyrazin-2-yl]-3-chloro-pyridine-2-carboxamide] | 0.0001 to 1 µM | 0.0001 to 1 µM | 1 to 10 µM |
| Cn1cnc2ccc(-c3c[nH]c4ncc(OCC#N)cc34)cc21 [P-084, 2-[[3-(3-methylbenzimidazol-5-yl)-1H-pyrrolo[2,3-b]pyridin-5-yl]oxy]acetonitrile] | 0.0001 to 1 µM | 0.0001 to 1 µM | 1 to 10 µM |
| COc1cnc2[nH]cc(-c3cnc4[nH]cnc4c3)c2c1 [P-052, 6-(5-methoxy-1H-pyrrolo[2,3-b]pyridin-3-yl)-3H-imidazo[4,5-b]pyridine] | 0.0001 to 1 µM | 0.0001 to 1 µM | 1 to 10 µM |
| Cn1cnc2ccc(-c3c[nH]c4ncc(-c5cccc(C#N)c5)cc34)cc21 [P-089, 3-[3-(3-methylbenzimidazol-5-yl)-1H-pyrrolo[2,3-b]pyridin-5-yl]benzonitrile] | 0.0001 to 1 µM | 0.0001 to 1 µM | 10 to 200 µM |
| CS(=O)(=O)Nc1cccc(-c2cnc3[nH]cc(-c4ccc5ncn(C6CCCC6)c5c4)c3c2)c1 [P-066, N-[3-[3-(3-cyclopentylbenzimidazol-5-yl)-1H-pyrrolo[2,3-b]pyridin-5-yl]phenyl]methanesulfonamide] | 0.0001 to 1 µM | 0.0001 to 1 µM | 0.0001 to 1 µM |
| CC(C)n1cc(-c2cnc3[nH]cc(-c4ccc5ncn(C(C)(C)C)c5c4)c3n2)cn1 [P-382, 7-(3-tert-butylbenzimidazol-5-yl)-2-(1-isopropylpyrazol-4-yl)-5H-pyrrolo[2,3-b]pyrazine] | 0.0001 to 1 µM | 0.0001 to 1 µM | 0.0001 to 1 µM |
| Cn1cnc2ccc(-c3c[nH]c4ncc(-c5cccc(S(N)(=O)=O)c5)cc34)cc21 [P-044, 3-[3-(3-methylbenzimidazol-5-yl)-1H-pyrrolo[2,3-b]pyridin-5-yl]benzenesulfonamide] | 0.0001 to 1 µM | 0.0001 to 1 µM | 10 to 200 µM |

— patent publication US10160755B2 (Plexxikon Inc., priority 2015, dated 2018)
